Columns and labels:
Format in all cases: functional, cell-based
NTERA-2-cl-D1 = assay: Proapoptotic activity in human NT2/D1 cells by annexin V-FITC/propidium iodide staining-based capillary cytometric method
ASPC1 = assay: Proapoptotic activity in human AsPC1 cells by annexin V-FITC/propidium iodide staining-based capillary cytometric method
BXPC-3 = assay: Proapoptotic activity in human BxPC3 cells by annexin V-FITC/propidium iodide staining-based capillary cytometric method
BJ = assay: Proapoptotic activity in human BJ cells by annexin V-FITC/propidium iodide staining-based capillary cytometric method

| Structure (SMILES) | EC50 (NTERA-2-cl-D1) [µM] | EC50 (ASPC1) [µM] | EC50 (BXPC-3) [µM] | EC50 (BJ) [µM] |
| --- | --- | --- | --- | --- |
| Nc1nc(-c2cccc(NC(=O)c3cc4cc(Cl)ccc4[nH]3)c2)c[nH]1 | 16 | 19 | 25 | 20 |
| COc1ccc2[nH]c(C(=O)Nc3cccc(-c4c[nH]c(N)n4)c3)cc2c1 | 16 | 52 | 53 | 31 |

Reference: ChEMBL document CHEMBL3853262 (Medchemcomm, 2016)
